Reference: patent US9073961B2, “Substitution derivatives of N6 -benzyladenosine-5′-monophosphate, methods of preparation thereof, use thereof as medicaments, and therapeutic preparations containing these compounds” (UNIVERZITA PALACKEHO V OLOMOUCI, priority 2010, dated 2015)

System: Human lymphocytes
Assay: Immunosuppressive activity, 3H-thymidine incorporation in concanavalin A activated lymphocytes
Format: cell-based
Settings: 72 hours, [3H]-TdR incorporation, read-out: Human lymphocytes ED50
From the text: One of the most important parameters of specific cellular immunity is the proliferative response of lymphocytes to antigens or polyclonal mitogens. The majority of normal mammalian peripheral lymphocytes comprise resting cells. Antigens or nonspecific polyclonal mitogens have the capacity to activate lymphoid cells and this is accompanied by dramatic changes of intracellular metabolism (mitochondrial activity, protein synthesis, nucleic acids synthesis, formation of blastic cells and cellular proliferation). […] Variety of in vitro assays was developed to measure proliferative response of lymphocytes. The most commonly used is ^3H-thymidine incorporation method.
During cell proliferation, DNA has to be replicated before the cell is divided into two daughter cells. This close association between cell doublings and DNA synthesis is very attractive for assessing cell proliferation. If labelled DNA precursors are added to the cell culture, cells that are about to divide incorporate the labelled nucleotide into their DNA. Traditionally, those assays usually involve the use of radiolabelled nucleosides, particularly tritiated thymidine ([^3H]-TdR). The amount of [^3H]-TdR incorporated into the cellular DNA is quantified by liquid scintillation counting.
Human heparinized peripheral blood was obtained from healthy volunteers by cubital vein punction. The blood was diluted in PBS (1:3) and mononuclear cells were separated by centrifugation in Ficoll-Hypaque density gradient (Pharmacia, 1.077 g/ml) at 2200 rpm for 30 minutes. Following centrifugation, lymphocytes were washed in PBS and resuspended in cell culture medium (RMPI 1640, 2 mM glutamine, 100 U/ml penicillin, 100 μg/ml streptomycin, 10% fetal calf serum and sodium bicarbonate).
The cells were diluted at target density of 1.100.000 cells/ml and were added by pipette (180 μl) into 96-well microtiter plates. Four-fold dilutions of the intended test concentration were added at time zero in 20 μl aliquots to the microtiter plate wells. Usually, test compound was evaluated at six 4-fold dilutions. In routine testing, the highest well concentration was 266.7 μM. All drug concentrations were examined in duplicates. All wells with exception of unstimulated controls were activated with 50 μl of concanavalin A (25 μg/ml). Incubations of cells with test compounds lasted for 72 hours at 37° C., in 5% CO2 atmosphere and 100% humidity. At the end of incubation period, the cells were assayed by using the [^3H]-TdR:
Cell cultures were incubated with 0.5 μCi (20 μl of stock solution 500 μCi/ml) per well for 6 hours at 37° C. and 5% CO2. The automated cell harvester was used to lyse cells in water and adsorb the DNA onto glass-fiber filters in the format of microtiter plate. The DNA incorporated [^3H]-TdR was retained on the filter while unincorporated material passes through. The filters were dried at room temperature overnight, sealed into a sample bag with 10-12 ml of scintillant. The amount of [^3H]-TdR present in each filter (in cpm) was determined by scintillation counting in a Betaplate liquid scintillation counter. The effective dose of immunosuppressant (ED) was calculated using the following equation: ED=(CCPMdrug exposed well/mean CCPMcontrol wells)×100%. The ED50 value, the drug concentration inhibiting proliferation of 50% of lymphocytes, was calculated from the obtained dose response curves.
To evaluate immunosuppressive activity of substituted adenines, their ability to inhibit polyclonal mitogen induced proliferation of normal human lymphocytes was analyzed (Table 4). […] Effective immunosuppressive dose of new derivatives under in vitro conditions was close to 10-40 μM.

O=P(O)(O)OC[C@H]1O[C@@H](n2cnc3c(NCc4ccccc4O)ncnc32)[C@H](O)[C@@H]1O [Compound 21, 6-(2-hydroxybenzylamino)purine riboside-5′-monophosphate]
EC50: 6.7 µM
